Test results from patent US4963570A, “1-(acetylaminophenyl)-2-aminopropanone derivatives and pharmaceutical compositions thereof” (Laboratoire L. Lafon, priority 1983, dated 1990).
Entries after “also recorded” stand apart in the source; their conditions may differ. Counter-ions that a name gives are not always drawn.

Tests used:
[1] = test system: mice; assay: overall behavior and reactivities in mice; type: in vivo, mouse; conditions: i.p.
Method: (§1) Groups of three animals are observed before and then 0.25 hour, 0.50 hour, 1 hour, 2 hours, 3 hours and 24 hours after the administration of CRL 41 224.

[2] = test system: rats; assay: overall behavior and reactivities in rats; type: in vivo, rat; conditions: i.p.
Method: as §1

[3] = test system: mice; assay: interaction with apomorphine in mice; type: in vivo, mouse; conditions: i.p.; dose not stated
Method: Groups of 6 mice receive CRL 41 224 0.5 hour before the subcutaneous injection of 1 or 16 mg/kg of apomorphine.

[4] = test system: rats; assay: interaction with apomorphine in rats; type: in vivo, rat; conditions: i.p., dose not stated
Method: CRL 41 224 is administered to groups of 6 rats 0.5 hour before the subcutaneous injection of 0.5 mg/kg of apomorphine.

[5] = test system: rats; assay: interaction with amphetamine; type: in vivo, rat; conditions: rats, i.p.; dose not stated
Method: Amphetamine (2 mg/kg) is injected intraperitoneally into groups of 6 rats 30 minutes after the administration of CRL 41 224.

[6] = test system: mice; assay: interaction with reserpine; type: in vivo, mouse; conditions: i.p.; dose not stated
Method: Four hours after the intraperitoneal injection of 2.5 mg/kg of reserpine, groups of 6 mice receive CRL 41 224.

[7] = test system: mice; assay: interaction with oxotremorine; type: in vivo, mouse; conditions: i.p.
Method: CRL 41 224 is administered to groups of 6 mice 0.5 hour before the intraperitoneal injection of 0.5 mg/kg of oxotremorine.

[8] = test system: mice; assay: four plate test, traction and electric shock; type: in vivo, mouse; conditions: i.p.
Method: The test is performed on groups of 10 mice 30 minutes after the administration of CRL 41 224.

[9] = test system: mice; assay: action on the spontaneous motility (actimeter); type: in vivo, mouse
Method: 0.5 hour after they have received CRL 41 224, the mice (6 per dose, 12 control animals) are placed in an actimeter, where their motility is recorded for 30 minutes.

[10] = test system: mice; assay: motility reduced by habituation to the enclosure; type: in vivo, mouse; conditions: i.p., dose not stated
Method: After they have stayed in the actimeters for 18 hours, the mice (6 per dose, 12 control animals) receive CRL 41 224. They are immediately returned to their respective enclosures and, half an hour later, their motility is recorded for 30 minutes.

[11] = test system: mice; assay: motility reduced by hypoxic aggression; type: in vivo, mouse; conditions: i.p., dose not stated
Method: Half an hour after they have received CRL 41 224, the mice (10 per dose, 20 control animals) are subjected to acute hypobaric anoxia [pressure reduction of 600 mm Hg (i.e. about 8×10^4 Pa) in 90 seconds; release of vacuum in 45 seconds] and are then placed in an actimeter, where their motility is recorded for 10 minutes.

[12] = test system: mice; assay: interaction with barbital; type: in vivo, mouse
Method: Half an hour after the administration of CRL 41 224, groups of 10 mice receive an intraperitoneal injection of barbital (220 mg/kg).

[13] = test system: mice; assay: action on the behavioral despair; type: in vivo, mouse; conditions: i.p.
From the text: Half an hour after they have received CRL 41 224, groups of 6 mice are placed in a beaker filled with water to a height of 6 cm. The total period of immobility between the 2nd and 6th minutes following immersion is noted.

[14] = test system: man; assay: clinical trials; type: in vivo, human; conditions: tablets or gelatine capsules 2 mg, 2 to 3 per day
[15] = test system: CNS; assay: overall neuropsychopharmacological (CNS) profile; type: in vivo, mouse; rat; conditions: i.p.
Method: The neuropsychopharmacological study of CRL 41 219 was carried out as indicated above for CRL 41 224.
The neuropsychopharmacological study of CRL 41 220 was carried out in accordance with the procedures given above for CRL 41 224.

[16] = test system: peripheral α-adrenergic stimulation; assay: signs of peripheral adrenergic stimulation; type: in vivo, mouse; rat; conditions: i.p.; dose not stated
Method: as §1

[17] = test system: mice; assay: toxicity to grouped mice compared with isolated mice; type: in vivo, mouse
[18] = test system: rats; assay: action on stereotypies in rats (α-methyltyrosine, haloperidol, reserpine); conditions: i.p.
[19] = test system: male mice; assay: acute toxicity, intraperitoneal (lethal doses); type: in vivo, mouse; conditions: i.p.
Method: By intraperitoneal administration to male mice, the LD-30 (lethal dose for 30% of the animals tested) is of the order of 128 mg/kg and the LD-50 is of the order of about 200 mg/kg.

[20] = test system: mice; assay: action on the intergroup aggression; type: in vivo, mouse; conditions: i.p., high doses
Method: After they have stayed for 3 weeks in the 2 halves of a cage divided by an opaque partition, groups of 3 mice receive CRL 41 224. Half an hour later, the two groups from the same cage are brought together by removal of the partition, and the number of fights which occur in 10 minutes is noted. Half the test is performed on ordinary mice (NMRI, C.E.R. January) and half on NMRI (Iffa Credo) mice.

[21] = test system: mice; assay: asphyxiant anoxia (gallamine triiodoethylate); type: in vivo, mouse; conditions: i.p., high dose
Method: Groups of 10 mice receive CRL 41 224 half an hour before the intraperitoneal administration of 32 mg/kg of gallamine triiodoethylate (reference curarizing agent).

[22] = pH of the aqueous solution as a function of concentration; type: physicochemical
Method: The neuropsychopharmacological study of CRL 41 242 was carried out according to the procedures described above for CRL 41 224, except that the pH of the aqueous solution of CRL 41 242 to be injected intraperitoneally varies as a function of the concentration in the manner indicated in Table III below.

[23] = test system: immunological properties; assay: immunological properties, overall; type: in vivo; conditions: dose not stated; dihydrochloride
From the text: The present 1-(acetylaminophenyl)-2-aminopropanone derivatives are useful in therapy. They all act on the CNS, more precisely as antidepressants. They have a stimulant or excitant component in their neuropsychopharmacological profile.

## CC(=O)Nc1ccc(C(=O)C(C)NC(C)(C)C)cc1 (stereo not drawn) [CRL 41 177]
[1]; mice, dose not stated
  excitation in mice: excitation with hyperreactivity in mice
[2]; dose not stated
  stereotype movements in rats: stereotype movements in rats
[3]
  hypothermia induced by apomorphine: antagonism of the hypothermia induced by apomorphine
[4]
  stereotypies induced by apomorphine: potentiation of the stereotypies induced by apomorphine
[5]
  stereotypies induced by amphetamine: potentiation of the stereotypies induced by apomorphine or amphetamine
[6]
  hypothermia induced by reserpine: antagonism of the hypothermia induced by apomorphine, oxotremorine or reserpine
  ptosis induced by reserpine: antagonism of the ptosis induced by reserpine
[7]; dose not stated
  hypothermia induced by oxotremorine: antagonism of the hypothermia induced by apomorphine, oxotremorine
  trembling caused by oxotremorine: antagonism of the trembling caused by oxotremorine
[8]; dose not stated
  convulsant effects of electric shock: potentiate the convulsant effects of electric shock
[9]; male mice, gastric
  effect on spontaneous motility, gastric versus intraperitoneal: greater than on intraperitoneal administration
[9]; mice, i.p., dose not stated
  spontaneous motility / motor activity: an increase in the spontaneous motility in mice
[10]
  motor activity after habituation to the enclosure: a resumption in the motor activity of mice accustomed to their enclosure
[11]
  motor recovery after hypoxic aggression: an improvement in the motor recovery in mice after acute hypoxia
[12]; i.p., dose not stated
  sleep induced by barbital: antagonism of the sleep induced by barbital
[12]; male mice, gastric
  interaction with barbital, gastric versus intraperitoneal: greater than on intraperitoneal administration
[13]; dose not stated
  period of immobility or "despair": a reduction in the immobility
[14]
  clinical result: antidepressant: excellent antidepressant drug
[15]; mice and rats, dose not stated
  overall action on the CNS: stimulant effects; also recorded: antidepressant effects
[16]
  exophthalmos: absent
  mydriasis: mydriasis
  peripheral adrenergic stimulation, overall: effects which may reflect peripheral adrenergic stimulation
  salivation: absent
[17]
  toxicity to grouped mice compared with isolated mice: do not increase the toxicity to grouped mice
[18]
  suppression of induced stereotype movements by prior injection of alpha-methyltyrosine: not suppressed

## CC(=O)Nc1ccc(C(=O)C(C)N2CCN(C)CC2)cc1 (stereo not drawn) [CRL 41 242, 1-(4-acetylaminophenyl)-2-(4-methylpiperazino)-propanone dihydrochloride]
[19]
  LD-0 (maximum non-lethal dose): greater than 256 mg/kg
  LD-60: about 500 mg/kg
[1]; high doses
  reactivities: decrease in the reactivities
[1]; strong/high doses
  body temperature (hypothermia): hypothermia in mice
[1]; mice, high doses
  sedation: sedation in mice
[2]; high doses
  sedation: sedation in mice and rats
[7]; strong/high doses
  hypothermia induced by oxotremorine: very moderate antagonism of the hypothermia induced by oxotremorine
[8]; mice, high doses
  number of punished passes in the four plate test: a decrease in the spontaneous motility and the number of punished passes
[9]; mice, i.p., high doses
  spontaneous motility: a decrease in the spontaneous motility
[20]
  intergroup aggression: a reduction in the intergroup aggression
[21]
  time taken for asphyxiant convulsions (and death) to occur: an increase in the time taken for convulsions and death to occur following asphyxiant anoxia
[12]; i.p., strong/high doses
  duration of the sleep induced by barbital: an increase in the duration of the sleep induced by barbital
[13]; strong/high doses
  period of immobility of mice forcibly immersed: a slight reduction in the period of immobility
[22]; 0.2 g/liter
  pH of the aqueous solution: 5.0
[22]; 0.4 g/liter
  pH of the aqueous solution: 4.5
[22]; 0.8 g/liter
  pH of the aqueous solution: 4.0
[22]; 2 g/liter
  pH of the aqueous solution: 3.5
[22]; 13 g/liter
  pH of the aqueous solution: 3.0
[22]; 50 g/liter
  pH of the aqueous solution: 2.5
[22]; ≤0.05 g/liter
  pH of the aqueous solution: 5.5
[15]; strong/high doses, dihydrochloride
  overall action on the CNS: sedative effects; also recorded: antidepressant effects
[15]; weak doses
  effects of the stimulant type: very discreet effects of the stimulant type
[23]
  immunological properties, overall: beneficial immunomodulating effects; also recorded: particularly valuable as an immunostimulant substance
